Test results as given in patent US20230339886A1 (University of Florida Research Foundation, Incorporated, priority 2020, published 2023).

Target: T1, REV-ERBα LBD (human; residues 281-614 Δ324-422) (Homo sapiens, UniProt P20393, DEL324-422)
T1 construct: 6×Histag-REV-ERBα LBD (human; residues 281-614 Δ324-422); made in house; host or cells: Escherichia coli
Assay: TR-FRET corepressor interaction assay (REV-ERBα LBD, FITC-SMRT peptide)
Assay type: biochemical
Details: Table 2, read-out: REVERBα agonism (EC50 class, FRET assay)
In short: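 Compound serial dilutions (in DMSO, triplicate) incubated 2 h at 4 °C; Tb donor excited at 340 nm, emission read at 495 nm and FITC acceptor at 520 nm. TR-FRET ratio (520/495 nm) plotted against ligand concentration and fitted to a sigmoidal dose-response curve.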

T1 sequence (P20393 with tags, fused parts or gaps DEL324-422): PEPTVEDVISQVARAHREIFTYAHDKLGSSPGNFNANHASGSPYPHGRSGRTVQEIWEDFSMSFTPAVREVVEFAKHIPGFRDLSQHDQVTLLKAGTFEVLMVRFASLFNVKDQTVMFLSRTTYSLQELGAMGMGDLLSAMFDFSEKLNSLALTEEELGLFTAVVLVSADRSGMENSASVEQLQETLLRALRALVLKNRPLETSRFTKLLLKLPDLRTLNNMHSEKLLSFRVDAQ
T1 sequence (Q9Y618 2335-2356 partner limits assumed): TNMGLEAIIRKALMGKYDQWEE

Row | Structure (SMILES) | EC50
1 | CC(C)(C)Cn1cc([C@H](NS(=O)(=O)N2CCCC2)C(F)(F)F)c2cc(F)c(-c3ccccc3C(F)(F)F)cc21 [Example 347, (S)—N-(2,2,2-trifluoro-1-(5-fluoro-1-neopentyl-6-(2-(trifluoromethyl)phenyl)-1H-indol-3-yl)ethyl)pyrrolidine-1-sulfonamide] | < 500 nM
2 | CC(C)S(=O)(=O)N[C@@H](c1cn(CC(C)(C)C)c2cc(-c3ccccc3C(F)(F)F)c(F)cc12)C(F)(F)F [Example 348, (S)—N-(2,2,2-trifluoro-1-(5-fluoro-1-neopentyl-6-(2-(trifluoromethyl)phenyl)-1H-indol-3-yl)ethyl)propane-2-sulfonamide] | 500 to 3000 nM
3 | O=S(=O)(N[C@@H](c1cn(CC2CC2)c2cc(-c3ccccc3C(F)(F)F)c(F)cc12)C(F)(F)F)C1CC1 [Example 349, (S)—N-(1-(1-(cyclopropylmethyl)-5-fluoro-6-(2-(trifluoromethyl)phenyl)-1H-indol-3-yl)-2,2,2-trifluoroethyl)cyclopropanesulfonamide] | < 500 nM
4 | CC(C)(C)Cn1cc([C@H](NS(=O)(=O)C2CC2)C(F)(F)F)c2cc(F)c(-c3ccccc3)cc21 [Example 350, (S)—N-(2,2,2-trifluoro-1-(5-fluoro-1-neopentyl-6-phenyl-1H-indol-3-yl)ethyl)cyclopropanesulfonamide] | 500 to 3000 nM
5 | CC(C)(C)Cn1cc([C@H](NS(=O)(=O)C2CC2)C(F)(F)F)c2cc(F)c(-c3c(F)cccc3C(F)(F)F)cc21 [Example 351, N-((1S)-2,2,2-trifluoro-1-(5-fluoro-6-(2-fluoro-6-(trifluoromethyl)phenyl)-1-neopentyl-1H-indol-3-yl)ethyl)cyclopropanesulfonamide] | < 500 nM

Now from value to compound:

Row | EC50 | Structure (SMILES)
6 | < 500 nM | Cc1c(-c2ccccc2C(F)(F)F)ccc2c([C@H](NS(=O)(=O)C3CC3)C(F)(F)F)cn(CC(C)(C)C)c12 [Example 353, (S)—N-(2,2,2-trifluoro-1-(7-methyl-1-neopentyl-6-(2-(trifluoromethyl)phenyl)-1H-indol-3-yl)ethyl)cyclopropanesulfonamide]
7 | < 500 nM | CC(C)(C)Cn1cc([C@H](NS(=O)(=O)C2CC2)C(F)(F)F)c2cc(F)c(-c3ccc(F)cc3C(F)(F)F)cc21 [Example 355, (S)—N-(2,2,2-trifluoro-1-(5-fluoro-6-(4-fluoro-2-(trifluoromethyl)phenyl)-1-neopentyl-1H-indol-3-yl)ethyl)cyclopropanesulfonamide]
8 | 500 to 3000 nM | CC(C)(C)Cn1cc([C@H](NS(=O)(=O)C2CC2)C(F)(F)F)c2cc(C(F)(F)F)c(-c3ccccc3C(F)(F)F)cc21 [Example 357, (S)—N-(2,2,2-trifluoro-1-(1-neopentyl-5-(trifluoromethyl)-6-(2-(trifluoromethyl)phenyl)-1H-indol-3-yl)ethyl)cyclopropanesulfonamide]
9 | < 500 nM | CC(C)(C)Cn1cc([C@H](NS(=O)(=O)C2CC2)C(F)(F)F)c2cc(F)c(-c3cccc(F)c3C(F)(F)F)cc21 [Example 360, (S)—N-(2,2,2-trifluoro-1-(5-fluoro-6-(3-fluoro-2-(trifluoromethyl)phenyl)-1-neopentyl-1H-indol-3-yl)ethyl)cyclopropanesulfonamide]
10 | < 500 nM | CC(C)(C)Cn1cc([C@H](NS(=O)(=O)C2CC2)C(F)(F)F)c2cc(F)c(-c3ccncc3Cl)cc21 [Example 361, (S)—N-(1-(6-(3-chloropyridin-4-yl)-5-fluoro-1-neopentyl-1H-indol-3-yl)-2,2,2-trifluoroethyl)cyclopropanesulfonamide]
11 | 500 to 3000 nM | CC(C)(C)Cn1cc([C@H](NS(=O)(=O)C(C)(C)C)C(F)(F)F)c2cc(F)c(-c3ccccc3C(F)(F)F)cc21 [Example 366, (S)-2-methyl-N-(2,2,2-trifluoro-1-(5-fluoro-1-neopentyl-6-(2-(trifluoromethyl)phenyl)-1H-indol-3-yl)ethyl)propane-2-sulfonamide]
